Tests used:
Test in all cases: relative viability (nuclei count vs DMSO), 5 days (fraction); higher = more cells survive
Cediranib + Vorinostat = compound: COc1cc2c(Oc3ccc4[nH]c(C)cc4c3F)ncnc2cc1OCCCN1CCCC1 [Cediranib] + O=C(CCCCCCC(=O)Nc1ccccc1)NO [Vorinostat] (partner 1 µM)
Procedure, shortened: (§1)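 Lung cancer cell lines in 1536-well plates were dosed by pin tool the day after seeding, either with one drug alone or with a fixed anchor-drug dose plus five library-drug doses (not always all listed) in √10 steps. After 5 days, cells were fixed and their nuclei stained in one step (final 0.05% Triton X-100, 1% formaldehyde, 1 ug/ml Hoechst), then counted on 4× images. Relative viability is the nuclei count in treated wells divided by that in vehicle wells. Values are medians of duplicate plates.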

Cediranib + Trametinib = compound: COc1cc2c(Oc3ccc4[nH]c(C)cc4c3F)ncnc2cc1OCCCN1CCCC1 [Cediranib] + CC(=O)Nc1cccc(-n2c(=O)n(C3CC3)c(=O)c3c(Nc4ccc(I)cc4F)n(C)c(=O)c(C)c32)c1 [Trametinib] (partner 0.02 µM)
Procedure, shortened: as §1

Decitabine + Navitoclax = compound: Nc1ncn([C@H]2C[C@H](O)[C@@H](CO)O2)c(=O)n1 [Decitabine] + CC1(C)CCC(c2ccc(Cl)cc2)=C(CN2CCN(c3ccc(C(=O)NS(=O)(=O)c4ccc(N[C@H](CCN5CCOCC5)CSc5ccccc5)c(S(=O)(=O)C(F)(F)F)c4)cc3)CC2)C1 [Navitoclax] (partner 0.5 µM)
Procedure, shortened: as §1

Row | Cell Line | relative viability (Cediranib + Vorinostat; first compound 0.04 µM) | relative viability (Cediranib + Vorinostat; first compound 0.1265 µM) | relative viability (Cediranib + Vorinostat; first compound 0.4 µM) | relative viability (Cediranib + Vorinostat; first compound 1.265 µM) | relative viability (Cediranib + Vorinostat; first compound 4 µM) | relative viability (Cediranib + Trametinib; first compound 0.04 µM) | relative viability (Cediranib + Trametinib; first compound 0.1265 µM) | relative viability (Cediranib + Trametinib; first compound 0.4 µM) | relative viability (Cediranib + Trametinib; first compound 1.265 µM) | relative viability (Cediranib + Trametinib; first compound 4 µM) | relative viability (Decitabine + Navitoclax; first compound 0.04 µM) | relative viability (Decitabine + Navitoclax; first compound 0.1265 µM) | relative viability (Decitabine + Navitoclax; first compound 0.4 µM) | relative viability (Decitabine + Navitoclax; first compound 1.265 µM) | relative viability (Decitabine + Navitoclax; first compound 4 µM)
1 | NCI-H2126 | 0.738 | 0.578 | 0.725 | 0.614 | 0.81 | 0.575 | 0.551 | 0.551 | 0.578 | 0.531 | 0.777 | 0.787 | 0.548 | 0.491 | 0.574
2 | NCI-H2170 | 0.88 |  | 0.793 | 0.718 | 0.962 | 0.993 |  | 0.935 | 0.81 | 0.986 | 0.402 | 0.338 | 0.382 | 0.238 | 0.204
3 | NCI-H2228 | 0.719 | 0.763 | 0.633 | 0.563 | 0.529 | 0.46 | 0.376 | 0.398 | 0.565 | 0.505 | 0.667 | 0.525 | 0.264 | 0.337 | 0.21
4 | NCI-H2347 | 0.693 | 0.621 | 0.538 | 0.577 | 0.512 | 0.316 | 0.282 | 0.233 | 0.286 | 0.318 | 0.792 | 0.543 | 0.425 | 0.385 | 0.348
5 | NCI-H2405 | 0.995 | 0.928 | 0.983 | 1.03 | 1.21 | 0.647 | 0.941 | 0.562 | 0.636 | 0.614 | 0.769 | 0.837 | 0.455 | 0.355 | 0.244
